Measured values published in patent US20230077362A1 (CORTEVA AGRISCIENCE LLC, priority 2019, published 2023).

Experiments:
[1] = system: Beet Armyworm (Spodoptera exigua) ("BAW"), second instar larvae; assay: Bioassay on beet armyworm (BAW), 128-well diet tray assay; type: in vivo; conditions: for pest or weed control at 50 µg/cm2: Spodoptera exigua, read-out: BAW rating; for BAW rating: Table ABC, species BAW, C = not tested, D = no activity noticed
Procedure, shortened: (§1)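 Mortality (%) is scored well by well after five to seven days at 25° C. on a 14:10 light:dark regime. The value given is the mean of eight wells.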

[2] = system: Cabbage Looper (Trichoplusia ni) ("CL"), second instar larvae; assay: Bioassay on cabbage looper (CL), 128-well diet tray assay; type: in vivo; conditions: for pest or weed control at 50 µg/cm2: Trichoplusia ni, read-out: CL rating; for CL rating: Table ABC, species CL, C = not tested, D = no activity noticed
Procedure, shortened: as §1

| SMILES | pest or weed control at 50 µg/cm2 [1] [%] | pest or weed control at 50 µg/cm2 [2] [%] | BAW rating [1] | CL rating [2] |
| --- | --- | --- | --- | --- |
| CC(C)c1cc(F)c(N(C)C)cc1N1C(=O)CS/C1=N\C(=O)Nc1ccc(-c2ncn(-c3ccc([S+]([O-])C(F)(F)F)cc3)n2)cc1F (stereo not shown) [Compound J384, (Z)-1-(3-(5-(Dimethylamino)-4-fluoro-2-isopropylphenyl)-4-oxothiazolidin-2-ylidene)-3-(2-fluoro-4-(1-(4-((trifluoromethyl)sulfinyl)phenyl)-1H-1,2,4-triazol-3-yl)phenyl)urea] | 50 to 100 | 50 to 100 | – | – |
| N#Cc1ccc(OCCC(F)(F)F)c(N2C(=O)CS/C2=N\C(=O)Nc2ccc(-c3ncn(-c4ccc([S+]([O-])C(F)(F)F)cc4)n3)cc2F)c1 (stereo not shown) [Compound J385, (Z)-1-(3-(5-Cyano-2-(3,3,3-trifluoropropoxy)phenyl)-4-oxothiazolidin-2-ylidene)-3-(2-fluoro-4-(1-(4-((trifluoromethyl)sulfinyl)phenyl)-1H-1,2,4-triazol-3-yl)phenyl)urea] | 50 to 100 | 50 to 100 | – | – |
| COC(c1ccc(C)cc1N1C(=O)CS/C1=N\C(=O)Nc1ccc(-c2ncn(-c3ccc([S+]([O-])C(F)(F)F)cc3)n2)cc1F)C(F)(F)F (stereo not shown) [Compound J386, (Z)-1-(2-Fluoro-4-(1-(4-((trifluoromethyl)sulfinyl)phenyl)-1H-1,2,4-triazol-3-yl)phenyl)-3-(3-(5-methyl-2-(2,2,2-trifluoro-1-methoxyethyl)phenyl)-4-oxothiazolidin-2-ylidene)urea] | 50 to 100 | 50 to 100 | – | – |
| Cc1ccc(OCCC(F)(F)F)c(N2C(=O)CS/C2=N\C(=O)Nc2ccc(-c3ncn(-c4ccc(SC(F)(F)F)cc4)n3)cc2)c1 [Compound J387, (Z)-1-(3-(5-Methyl-2-(3,3,3-trifluoropropoxy)phenyl)-4-oxothiazolidin-2-ylidene)-3-(4-(1-(4-((trifluoromethyl)thio)phenyl)-1H-1,2,4-triazol-3-yl)phenyl)urea] | 50 to 100 | 50 to 100 | – | – |
| CCCc1ccc(N(C)C)cc1N1C(=O)CS/C1=N\C(=O)Nc1ccc(-c2ncn(-c3ccc(SC(F)(F)F)cc3)n2)cc1 [Compound J388, (Z)-1-(3-(5-(Dimethylamino)-2-propylphenyl)-4-oxothiazolidin-2-ylidene)-3-(4-(1-(4-((trifluoromethyl)thio)phenyl)-1H-1,2,4-triazol-3-yl)phenyl)urea] | 50 to 100 | 50 to 100 | – | – |
| CC(C)c1cc(F)c(N(C)C)cc1N1C(=O)CS/C1=N\C(=O)Nc1ccc(-c2ncn(-c3ccc(SC(F)(F)F)cc3)n2)cc1 [Compound J389, (Z)-1-(3-(5-(Dimethylamino)-4-fluoro-2-isopropylphenyl)-4-oxothiazolidin-2-ylidene)-3-(4-(1-(4-((trifluoromethyl)thio)phenyl)-1H-1,2,4-triazol-3-yl)phenyl)urea] | 50 to 100 | 50 to 100 | – | – |
| Cc1ccc(COCC(F)(F)F)c(N2C(=O)CS/C2=N\C(=O)Nc2ccc(-c3ccn(-c4ccc(C(F)(F)F)nn4)n3)cc2F)c1 [Compound J390] | – | – | A (50-100) | A (50-100) |
| CC(C)c1ccc(N(C)C)cc1N1C(=O)CS/C1=N\C(=O)Nc1ccc(-c2ccn(-c3ccc(C(F)(F)F)nn3)n2)cc1F [Compound J391] | 50 to 100 | 50 to 100 | – | – |
| N#Cc1ccc(OCCC(F)(F)F)c(N2C(=O)CS/C2=N\C(=O)Nc2ccc(-c3ncn(-c4ccc(SC(F)(F)F)cc4)n3)cc2)c1 [Compound J392, (Z)-1-(3-(5-Cyano-2-(3,3,3-trifluoropropoxy)phenyl)-4-oxothiazolidin-2-ylidene)-3-(4-(1-(4-((trifluoromethyl)thio)phenyl)-1H-1,2,4-triazol-3-yl)phenyl)urea] | 50 to 100 | 50 to 100 | – | – |
| Cc1ccc(COCC(F)(F)F)c(N2C(=O)CS/C2=N\C(=O)Nc2ccc(-c3ncn(-c4ccc(C(F)(F)F)nn4)n3)cc2F)c1 [Compound J394] | – | – | A (50-100) | A (50-100) |
| CC(=O)c1cc(-c2ncn(-c3ccc(OC(F)(F)F)cc3)n2)ccc1NC(=O)/N=C1\SCC(=O)N1c1cc(C)ccc1C(C)C [Compound J395, (Z)-1-(2-Acetyl-4-(1-(4-(trifluoromethoxy)phenyl)-1H-1,2,4-triazol-3-yl)phenyl)-3-(3-(2-isopropyl-5-methylphenyl)-4-oxothiazolidin-2-ylidene)urea] | 50 to 100 | 50 to 100 | – | – |
| CC(=O)c1cc(-c2ncn(-c3ccc(OC(F)(F)F)cc3)n2)ccc1NC(=O)/N=C1\SCC(=O)N1c1cc(N(C)C)ccc1C(C)C [Compound J396, (Z)-1-(2-Acetyl-4-(1-(4-(trifluoromethoxy)phenyl)-1H-1,2,4-triazol-3-yl)phenyl)-3-(3-(5-(dimethylamino)-2-isopropylphenyl)-4-oxothiazolidin-2-ylidene)urea] | 50 to 100 | 50 to 100 | – | – |
| COC(C)c1ccc(C)cc1N1C(=O)CS/C1=N\C(=O)Nc1ccc(-c2ncn(-c3ccc(OC(F)(F)F)cc3)n2)cc1C(C)=O (stereo not shown) [Compound J397, (Z)-1-(2-Acetyl-4-(1-(4-(trifluoromethoxy)phenyl)-1H-1,2,4-triazol-3-yl)phenyl)-3-(3-(2-(1-methoxyethyl)-5-methylphenyl)-4-oxothiazolidin-2-ylidene)urea] | 50 to 100 | 50 to 100 | – | – |
| CC(=O)c1cc(-c2ncn(-c3ccc(OC(F)(F)F)cc3)n2)ccc1NC(=O)/N=C1\SCC(=O)N1c1cc(C)ccc1COCC(F)(F)F [Compound J398, (Z)-1-(2-Acetyl-4-(1-(4-(trifluoromethoxy)phenyl)-1H-1,2,4-triazol-3-yl)phenyl)-3-(3-(5-methyl-2-((2,2,2-trifluoroethoxy)methyl)phenyl)-4-oxothiazolidin-2-ylidene)urea] | 50 to 100 | 50 to 100 | – | – |
| CC(=O)c1cc(-c2ncn(-c3ccc(OC(F)(F)F)cc3)n2)ccc1NC(=O)/N=C1\SCC(=O)N1c1cc(C)ccc1OCCC(F)(F)F [Compound J399, (Z)-1-(2-Acetyl-4-(1-(4-(trifluoromethoxy)phenyl)-1H-1,2,4-triazol-3-yl)phenyl)-3-(3-(5-methyl-2-(3,3,3-trifluoropropoxy)phenyl)-4-oxothiazolidin-2-ylidene)urea] | 50 to 100 | 50 to 100 | – | – |
| Cc1ccc(COCC(F)F)c(N2C(=O)CS/C2=N\C(=O)Nc2ccc(-c3ncn(-c4ccc(C(F)(F)F)cn4)n3)cc2F)c1 [Compound J400] | – | – | A (50-100) | A (50-100) |
| Cc1ccc(COCC(F)F)c(N2C(=O)CS/C2=N\C(=O)Nc2ccc(-c3ncn(-c4ccc(OC(F)(F)F)cc4)n3)cc2F)c1 [Compound J401] | 50 to 100 | 50 to 100 | – | – |
| Cc1ccc(OCCC(F)(F)F)c(N2C(=O)CS/C2=N\C(=O)Nc2ccc(-c3ncn(-c4ccc(S(=O)(=O)C(F)(F)F)cc4)n3)cc2C#N)c1 [Compound J402, (Z)-1-(2-cyano-4-(1-(4-((trifluoromethyl)sulfonyl)phenyl)-1H-1,2,4-triazol-3-yl)phenyl)-3-(3-(5-methyl-2-(3,3,3-trifluoropropoxy)phenyl)-4-oxothiazolidin-2-ylidene)urea] | 50 to 100 | 50 to 100 | – | – |
| Cc1ccc(COCC(F)(F)F)c(N2C(=O)CS/C2=N\C(=O)Nc2ccc(-n3cnc(-c4ccc(OC(F)(F)F)cc4)n3)cc2)c1 [Compound J403, (Z)-1-(3-(5-Methyl-2-((2,2,2-trifluoroethoxy)methyl)phenyl)-4-oxothiazolidin-2-ylidene)-3-(4-(3-(4-(trifluoromethoxy)phenyl)-1H-1,2,4-triazol-1-yl)phenyl)urea] | 50 to 100 | 50 to 100 | – | – |
| Cc1ccc(OCCC(F)(F)F)c(N2C(=O)CS/C2=N\C(=O)Nc2ccc(-n3cnc(-c4ccc(OC(F)(F)F)cc4)n3)cc2)c1 [Compound J404, (Z)-1-(3-(5-Methyl-2-(3,3,3-trifluoropropoxy)phenyl)-4-oxothiazolidin-2-ylidene)-3-(4-(3-(4-(trifluoromethoxy)phenyl)-1H-1,2,4-triazol-1-yl)phenyl)urea] | 50 to 100 | 50 to 100 | – | – |
| COC(c1ccc(C)cc1N1C(=O)CS/C1=N\C(=O)Nc1ccc(-n2cnc(-c3ccc(OC(F)(F)F)cc3)n2)cc1)C(F)(F)F (stereo not shown) [Compound J405, (Z)-1-(3-(5-Methyl-2-(2,2,2-trifluoro-1-methoxyethyl)phenyl)-4-oxothiazolidin-2-ylidene)-3-(4-(3-(4-(trifluoromethoxy)phenyl)-1H-1,2,4-triazol-1-yl)phenyl)urea] | 50 to 100 | 50 to 100 | – | – |
| N#Cc1ccc(OCCC(F)(F)F)c(N2C(=O)CS/C2=N\C(=O)Nc2ccc(-n3cnc(-c4ccc(OC(F)(F)F)cc4)n3)cc2)c1 [Compound J406, (Z)-1-(3-(5-Cyano-2-(3,3,3-trifluoropropoxy)phenyl)-4-oxothiazolidin-2-ylidene)-3-(4-(3-(4-(trifluoromethoxy)phenyl)-1H-1,2,4-triazol-1-yl)phenyl)urea] | 50 to 100 | 50 to 100 | – | – |
| CC(C)c1ccc(C#N)cc1N1C(=O)CS/C1=N\C(=O)Nc1ccc(-n2cnc(-c3ccc(OC(F)(F)F)cc3)n2)cc1 [Compound J407, (Z)-1-(3-(5-Cyano-2-isopropylphenyl)-4-oxothiazolidin-2-ylidene)-3-(4-(3-(4-(trifluoromethoxy)phenyl)-1H-1,2,4-triazol-1-yl)phenyl)urea] | 50 to 100 | 50 to 100 | – | – |
